{
  "source": "patent US20080167268A1",
  "about": "“Particulate beta-glucan compositions for regulating dendritic cells” (priority 2006, published 2008)",
  "test_system": "Lewis Lung Carcinoma cells (LLC) transfected with OVA and MUC1",
  "experiment": "Staurosporine-induced apoptosis of transfected LLCs (PI / annexin V-FITC flow cytometry)",
  "format": "cell-based",
  "settings": "transfected LLCs treated with Staurosporine vs untreated; FIG. 2",
  "description": "Transfected LLCs were either left untreated (plot 22) or treated (plot 24) with Staurosporine, which induces apoptosis. Cells from both groups were stained with propidium iodide (PI) and annexin V-FITC and analyzed by flow cytometry.",
  "data": [
    {"smiles": "CN[C@@H]1C[C@H]2O[C@@](C)([C@@H]1OC)n1c3ccccc3c3c4c(c5c6ccccc6n2c5c31)C(=O)NC4", "note": "[Staurosporine]", "values": [
      {"measurement": "induction of apoptosis (annexin V-FITC positive cells)", "value": "able to induce apoptosis"}
    ]}
  ]
}
